# Key:
# subjects with migraine [1] = experiment: Clinical Study Trials #1 and #2: severity of migraine headaches, topiramate with triptan rescue therapy; type: in vivo, human; conditions: for Severity of Migraine Headaches, Baseline / Severity of Migraine Headaches, Double-Blind: triptan rescue therapy; for Severity of Migraine Headaches, Double-Blind: Double-Blind Phase; for Severity of Migraine Headaches, Difference: Double-Blind minus Baseline
# Protocol: (§1) The primary objective of these studies was to evaluate the safety and efficacy of three doses of topiramate (50, 100, and 200 mg/day) versus placebo in the prophylaxis of migraine based on the change in the monthly (28 day) migraine period rate from the Prospective Baselin,e Period to the Double-Blind Phase. The secondary objectives for the studies were to assess dose response relationship, and to evaluate the effect of prophylactic treatment with topiramate (50, 100, and 200 mg/day) versus placebo on Health-Related Quality of Life (HRQL).
# (§2) The studies were randomized, double-blind, placebo-controlled, parallel-group, multicenter studies. Male and female subjects were randomized equally to the four treatment groups.
# (§3) While the IHS criteria was used to establish the diagnosis at study entry, the evaluation of efficacy was based on migraine periods. A migraine period was defined as the length of time between the onset and cessation of painful migraine symptoms. This period could last up to, but no longer than, 24 hours. If the painful symptoms persisted more than 24 hours after their initial onset, this was considered to be a new, distinct migraine period. If symptoms recurred within 24 hours of the initial onset, this was considered part of the same, initial period.
# (§4) Subjects who completed the Baseline Phase and met the entry criteria were randomized to one of four treatment groups: 50 mg/day topiramate, 100 mg/day topiramate, 200 mg/day topiramate or placebo. The Double-Blind Phase had two periods: Titration and Maintenance, which are described in more detail below.
# (§5) The Titration Period immediately followed the Baseline Phase and extended for eight weeks (56 days). During this period, subjects randomized to topiramate were started at a dose of 25 mg/day and the daily dose was increased by 25 mg weekly until they reach their assigned dose (or maximum tolerated dose, whichever is less). From the third week of Titration until the end of the Maintenance Period, a maximum of two dose level reductions were permitted for unacceptable tolerability problems. If the subject was still in the Titration Period after a dose reduction, rechallenge may have occurred in an attempt to achieve the subject's assigned dose, and, if unsuccessful, the dose may have been reduced again to the original reduced dose. Subjects who had their study medication dose decreased twice, and were still experiencing unacceptable tolerability problems that warranted additional dose reductions, exited the study. Clinic visits occurred on Day 29 (Visit 3) and Day 57 (Visit 4/End of Titration).
# (§6) During this 18-week period, the subjects remained on the dose of study medication reached at the end of the Titration Period (the assigned dose or the maximum tolerated dose). If the subject experienced unacceptable tolerability problems, the dose was reduced, only one dose reduction was permitted in the maintenance. No rechallenge was permitted during the Maintenance Period, so that subject continued on the reduced dose for the remainder of the period. Subjects who already had their study medication dose decreased by two levels, and were still experiencing unacceptable tolerability problems that warranted additional dose reductions exited the study. Clinic visits occurred on Day 85 (Visit 5), Day 113 (Visit 6), Day 141 (Visit 7) and Day 183 (Visit 8/ Double-Blind Final Visit or Early Withdrawal).
# (§7) Subjects were randomized to one of four treatment groups: a) placebo, b) 50 mg/day topiramate, c) 100 mg/day topiramate, or d) 200 mg/day topiramate. All subjects received study medication in a b.i.d. dosing regimen except during the first week of Titration, during which they took single evening doses.
# (§8) In keeping with good pain management practices, subjects enrolled in these studies were permitted to take acute abortive/rescue medication as indicated for the treatment of pain during migraine/headache attacks. […]
# subjects with migraine [2] = experiment: Clinical Study Trials #1 and #2: severity of nausea associated with migraine headaches; type: in vivo, human; conditions: for Severity of Nausea Associated Migraine Headaches, Baseline / Severity of Nausea Associated Migraine Headaches, Double-Blind / Severity of Nausea Associated Migraine Headaches, Difference: scale 0 to 3; for Severity of Nausea Associated Migraine Headaches, Baseline / Severity of Nausea Associated Migraine Headaches, Double-Blind: triptan rescue therapy; for Severity of Nausea Associated Migraine Headaches, Double-Blind: Double-Blind Phase; for Severity of Nausea Associated Migraine Headaches, Difference: Double-Blind minus Baseline
# Protocol: as §1, §2, §3, §4, §5, §6, §7, §8
# subjects with migraine [3] = experiment: Clinical Study Trials #1 and #2: severity of photophobia associated with migraine headaches; type: in vivo, human; conditions: for Severity of Photophobia Associated Migraine Headaches, Baseline / Severity of Photophobia Associated Migraine Headaches, Double-Blind / Severity of Photophobia Associated Migraine Headaches, Difference: scale 0 to 3; for Severity of Photophobia Associated Migraine Headaches, Baseline / Severity of Photophobia Associated Migraine Headaches, Double-Blind: triptan rescue therapy; for Severity of Photophobia Associated Migraine Headaches, Double-Blind: Double-Blind Phase; for Severity of Photophobia Associated Migraine Headaches, Difference: Double-Blind minus Baseline
# Protocol: as §1, §2, §3, §4, §5, §6, §7, §8
# subjects with migraine [4] = experiment: Clinical Study Trials #1 and #2: severity of phonophobia associated with migraine headaches; type: in vivo, human; conditions: for Severity of Phonophobia Associated With Migraine Headaches, Baseline / Severity of Phonophobia Associated With Migraine Headaches, Double-Blind / Severity of Phonophobia Associated With Migraine Headaches, Difference: scale 0 to 3; for Severity of Phonophobia Associated With Migraine Headaches, Baseline / Severity of Phonophobia Associated With Migraine Headaches, Double-Blind: triptan rescue therapy; for Severity of Phonophobia Associated With Migraine Headaches, Double-Blind: Double-Blind Phase; for Severity of Phonophobia Associated With Migraine Headaches, Difference: Double-Blind minus Baseline
# Protocol: as §1, §2, §3, §4, §5, §6, §7, §8
# [5] = test system: refractory migraine (migraine without aura); experiment: Case Study 2: refractory migraine without aura; type: in vivo, human; conditions: 75 mg/day topiramate, 20 mg/day CORGARD and 20 mg/day CELEXA
# Protocol: The patient was a person with a lifelong history of refractory migraine (migraine without aura), averaging 8 migraines per month. […] The patient was started on topiramate at 25 mg/day, with dosage increasing to 75 mg/day. Simultaneously, the beta-blocker, CORGARD dosage was decreased to 20 mg/day, with CELEXA at 20 mg/day also continued.
# [6] = test system: severe refractory migraine with and without aura; experiment: Case Study 3: severe refractory migraine with and without aura; type: in vivo, human
# Protocol: The patient was a person with a twenty-year history of severe refractory migraine with and without aura. […] The patient was started on topiramate at 50 mg/day increasing to 100 mg in the morning and 100 mg in the evening, in combination with INDERAL at 160 mg/day. […] After about 6 months, the patient was prescribed EFFEXOR XR (vanlafaxine HCl) at 37 mg/day, an increased topiramate dose of 125 mg in the morning and 150 mg in the evening, and 160 mg/day INDERAL.
# [7] = test system: simple and complex partial seizures and secondarily generalized seizures; conditions: clinical trials of human epilepsy; cited from earlier work
# seizures = conditions: several rodent models of epilepsy; cited from earlier work
# kindled epilepsy = conditions: animal model of kindled epilepsy; cited from earlier work
# [8] = patients taking 100 mg topiramate in Study 1
# [9] = topiramate with triptan rescue medication vs triptan rescue alone, measurable at 50 mg and 100 mg
compound,measurement,setting,value
"CC1(C)O[C@@H]2[C@@H](CO[C@@]3(COS(N)(=O)=O)OC(C)(C)O[C@@H]23)O1 [topiramate, 2,3:4,5-bis-O-(1-methylethylidene)-β-D-fructopyranose sulfamate]","Severity of Migraine Headaches, Baseline","subjects with migraine [1]; TPM 50 mg, scale 0 to 3 (0=none, 3=severe)",2.32
same,"Severity of Migraine Headaches, Double-Blind","subjects with migraine [1]; TPM 50 mg, scale 0 to 3",2.18
same,"Severity of Migraine Headaches, Difference","subjects with migraine [1]; TPM 50 mg, scale 0 to 3",−0.13
same,"Severity of Migraine Headaches, Baseline","subjects with migraine [1]; TPM 100 mg, scale 0 to 3",2.33
same,"Severity of Migraine Headaches, Double-Blind","subjects with migraine [1]; TPM 100 mg, scale 0 to 3",2.14
same,"Severity of Migraine Headaches, Difference","subjects with migraine [1]; TPM 100 mg, scale 0 to 3",−0.19
same,"Severity of Migraine Headaches, Baseline","subjects with migraine [1]; TPM 200 mg, scale 0 to 3",2.26
same,"Severity of Migraine Headaches, Double-Blind","subjects with migraine [1]; TPM 200 mg, scale 0 to 3",2.16
same,"Severity of Migraine Headaches, Difference","subjects with migraine [1]; TPM 200 mg, scale 0 to 3",−0.10
same,Statistical significance of effect on severity of migraine headaches (in words),subjects with migraine [1]; patient group taking 100 mg topiramate,Statistically significant results
same,Effect on severity of migraine headaches (in words),"subjects with migraine [1]; topiramate in combination with triptan rescue medication vs rescue medications alone, 50, 100 and 200 mg",decrease in the severity of migraine headaches
same,"Severity of Nausea Associated Migraine Headaches, Baseline",subjects with migraine [2]; TPM 50 mg,1.17
same,"Severity of Nausea Associated Migraine Headaches, Double-Blind",subjects with migraine [2]; TPM 50 mg,1.17
same,"Severity of Nausea Associated Migraine Headaches, Difference",subjects with migraine [2]; TPM 50 mg,−0.01
same,"Severity of Nausea Associated Migraine Headaches, Baseline",subjects with migraine [2]; TPM 100 mg,1.22
same,"Severity of Nausea Associated Migraine Headaches, Double-Blind",subjects with migraine [2]; TPM 100 mg,1.12
same,"Severity of Nausea Associated Migraine Headaches, Difference",subjects with migraine [2]; TPM 100 mg,−0.10
same,"Severity of Nausea Associated Migraine Headaches, Baseline",subjects with migraine [2]; TPM 200 mg,1.12
same,"Severity of Nausea Associated Migraine Headaches, Double-Blind",subjects with migraine [2]; TPM 200 mg,1.09
same,"Severity of Nausea Associated Migraine Headaches, Difference",subjects with migraine [2]; TPM 200 mg,−0.03
same,Statistical significance of effect on severity of nausea (in words),subjects with migraine [2]; patients taking 100 mg topiramate,Statistically significant differences in the severity of nausea
same,Effect on severity of nausea associated with migraine headaches (in words),"subjects with migraine [2]; topiramate with triptan class rescue medications, measurable at 100 mg and 200 mg",decrease in the severity of nausea
same,"Severity of Photophobia Associated Migraine Headaches, Baseline",subjects with migraine [3]; TPM 50 mg,1.83
same,"Severity of Photophobia Associated Migraine Headaches, Double-Blind",subjects with migraine [3]; TPM 50 mg,1.68
same,"Severity of Photophobia Associated Migraine Headaches, Difference",subjects with migraine [3]; TPM 50 mg,−0.14
same,"Severity of Photophobia Associated Migraine Headaches, Baseline",subjects with migraine [3]; TPM 100 mg,1.77
same,"Severity of Photophobia Associated Migraine Headaches, Double-Blind",subjects with migraine [3]; TPM 100 mg,1.58
same,"Severity of Photophobia Associated Migraine Headaches, Difference",subjects with migraine [3]; TPM 100 mg,−0.19
same,"Severity of Photophobia Associated Migraine Headaches, Baseline",subjects with migraine [3]; TPM 200 mg,1.62
same,"Severity of Photophobia Associated Migraine Headaches, Double-Blind",subjects with migraine [3]; TPM 200 mg,1.57
same,"Severity of Photophobia Associated Migraine Headaches, Difference",subjects with migraine [3]; TPM 200 mg,−0.05
same,"Statistical significance of effect, text under Table 4 (in words)",subjects with migraine [3]; [8],Statistically significant differences in the severity of nausea
same,Effect on severity of associated photophobia (in words),subjects with migraine [3]; [9],decreased the severity of associated photophobia
same,"Severity of Phonophobia Associated With Migraine Headaches, Baseline",subjects with migraine [4]; TPM 50 mg,1.65
same,"Severity of Phonophobia Associated With Migraine Headaches, Double-Blind",subjects with migraine [4]; TPM 50 mg,1.59
same,"Severity of Phonophobia Associated With Migraine Headaches, Difference",subjects with migraine [4]; TPM 50 mg,−0.06
same,"Severity of Phonophobia Associated With Migraine Headaches, Baseline",subjects with migraine [4]; TPM 100 mg,1.72
same,"Severity of Phonophobia Associated With Migraine Headaches, Double-Blind",subjects with migraine [4]; TPM 100 mg,1.58
same,"Severity of Phonophobia Associated With Migraine Headaches, Difference",subjects with migraine [4]; TPM 100 mg,−0.15
same,"Severity of Phonophobia Associated With Migraine Headaches, Baseline",subjects with migraine [4]; TPM 200 mg,1.50
same,"Severity of Phonophobia Associated With Migraine Headaches, Double-Blind",subjects with migraine [4]; TPM 200 mg,1.47
same,"Severity of Phonophobia Associated With Migraine Headaches, Difference",subjects with migraine [4]; TPM 200 mg,−0.03
same,"Statistical significance of effect, text under Table 5 (in words)",subjects with migraine [4]; [8],Statistically significant differences in the severity of nausea
same,Effect on severity of associated phonophobia (in words),subjects with migraine [4]; [9],decreased the severity of associated phonophobia
same,Headache frequency,[5],significant decrease in headache frequency
same,Headache-free time,[5],no headache for up to four weeks
same,Response of severe refractory migraine,[6]; topiramate 100 mg in the morning and 100 mg in the evening with INDERAL at 160 mg/day,"initial positive response, but the headaches broke through"
same,Response of severe refractory migraine,"[6]; topiramate 125 mg morning and 150 mg evening, EFFEXOR XR 37 mg/day, INDERAL 160 mg/day",Modest but sustained improvement
same,Efficacy in treating simple and complex partial seizures and secondarily generalized seizures,[7],effective as adjunctive therapy or as monotherapy
same,Block of seizures,seizures,effectively block seizures
same,Block of seizures,kindled epilepsy,effectively block seizures

# — patent US20030225002A1, “Co-therapy for the treatment of migraine comprising anticonvulsant derivatives and anti-migraine agents” (priority 2002, published 2003)
